Reference: US20220348595A1, “COMPOUNDS AND METHODS FOR THE TARGETED DEGRADATION OF ESTROGEN RECEPTORS” (Endotarget Inc., priority 2021, published 2022)
pIC50: −log10 of the molar value. Like-named read-outs stand apart in the source and are kept apart here.

What was measured:
Assay type in all cases: cell-based
[1] = target: T1, ER (Homo sapiens, UniProt P03372); assay: ER antagonism (T47D ERE luciferase), T47d-kb-Luc cells; details: read-out: IC50 (ER antagonistm)
T1 construct: endogenous in cells; host or cells: T47d-kb-Luc (T47D stably transfected with a luciferase reporter gene only)
T1 sequence (P03372 1-595): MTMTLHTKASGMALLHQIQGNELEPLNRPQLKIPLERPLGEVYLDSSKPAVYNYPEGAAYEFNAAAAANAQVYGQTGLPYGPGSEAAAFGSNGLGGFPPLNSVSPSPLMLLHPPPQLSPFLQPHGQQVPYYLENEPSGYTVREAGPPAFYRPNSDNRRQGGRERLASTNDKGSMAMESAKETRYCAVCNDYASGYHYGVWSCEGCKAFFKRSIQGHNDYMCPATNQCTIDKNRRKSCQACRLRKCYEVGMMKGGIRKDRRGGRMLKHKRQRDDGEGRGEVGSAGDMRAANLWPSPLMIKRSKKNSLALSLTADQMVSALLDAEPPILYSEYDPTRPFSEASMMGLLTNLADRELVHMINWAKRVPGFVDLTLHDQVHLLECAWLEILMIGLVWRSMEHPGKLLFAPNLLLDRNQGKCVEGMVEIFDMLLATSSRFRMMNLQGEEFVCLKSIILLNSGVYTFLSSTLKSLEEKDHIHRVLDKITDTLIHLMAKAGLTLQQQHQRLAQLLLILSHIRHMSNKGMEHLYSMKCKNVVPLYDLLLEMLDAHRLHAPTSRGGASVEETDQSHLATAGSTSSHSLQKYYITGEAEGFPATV
Procedure, shortened: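 Stably transfected T47d-kb-Luc human breast cancer cells were used, and antagonism was measured as inhibition of estradiol-driven activity. Data were normalised to the estradiol control. Five concentrations were tested in quadruplicate across at least three experiments.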

[2] = system: MCF-7 breast cancer cells; assay: MCF-7 proliferation / cell viability assay; details: MCF-7 proliferation with 0.1 nM 17-beta estradiol, read-out: IC50 (anti-proliferation)
Procedure, shortened: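 MCF-7 cells in 5% FBS DMEM were exposed for 5 days to compound at 6 doses from 10^−10 M to 10^−5 M, with DMSO as vehicle. Viable cells were counted by Coulter counter. Survival ratio = treated/vehicle viable cell number, vehicle set to 100%.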

[3] = target: T2, ERα (Homo sapiens, UniProt P03372); assay: ER degradation in MCF-7 cells (Western blot); details: for DC50: ER degradation, 24 hours
T2 construct: endogenous in cells; host or cells: MCF-7
T2 sequence (P03372 1-595): T1 sequence (P03372 1-595)
Procedure, shortened: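 MCF-7 cells treated with a range of compound concentrations for 24 hours, then lysed; 50 μg protein probed for ERα by Western blot with infrared imaging. DC50 is concentration giving 50% ER reduction; Dmax is the highest percentage reduction over the range tested.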

[4] = MCF7, Maximal ER degradation, read-out: Dmax

SMILES	pIC50 [1]	pIC50 ([2]; Homo sapiens, MCF7)	DC50 [3] [nM]	Dmax [3, 4] [%]	pIC50 [2]	Dmax ([3]; Maximal ER degradation)
CC/C(=C(\c1ccc(O)cc1)c1ccc(N2CCN(C(=O)N3CCN(c4ccc5c(c4)CN(C4CCC(=O)NC4=O)C5=O)CC3)CC2)cc1)c1ccccc1 (centres unmarked) [Compound 97, (E)-3-(5-(4-(4-(4-(1-(4-hydroxyphenyl)-2-phenylbut-1-en-1-yl)phenyl)piperazine-1-carbonyl)piperazin-1-yl)-1-oxoisoindolin-2-yl)piperidine-2,6-dione]	> 8.00	7.30 to 8.00	10 to 50	> 90		
CC/C(=C(\c1ccc(O)cc1)c1ccc(N2CCN(C(=O)N3CCN(c4ccc5c(c4)CN([C@H]4CCC(=O)NC4=O)C5=O)CC3)CC2)cc1)c1ccccc1 [Compound 98]	> 8.00		10 to 50		7.30 to 8.00	A (A -> 90%)
CC/C(=C(\c1ccc(O)cc1)c1ccc(N2CCN(C(=O)N3CCN(c4ccc5c(c4)CN([C@@H]4CCC(=O)NC4=O)C5=O)CC3)CC2)cc1)c1ccccc1 [Compound 99, (R,E)-3-(5-(4-(4-(4-(1-(4-hydroxyphenyl)-2-phenylbut-1-en-1-yl)phenyl)piperazine-1-carbonyl)piperazin-1-yl)-1-oxoisoindolin-2-yl)piperidine-2,6-dione]	> 8.00	7.30 to 8.00	10 to 50	> 90		
CC/C(=C(/c1ccc(O)cc1)c1ccc(N2CCN(C(=O)N3CCN(c4ccc5c(c4)CN(C4CCC(=O)NC4=O)C5=O)CC3)CC2)cc1)c1ccccc1 (centres unmarked) [Compound 100]	> 8.00	7.30 to 8.00	< 10	> 90		
CC/C(=C(/c1ccc(O)cc1)c1ccc(N2CCN(C(=O)N3CCN(c4ccc5c(c4)CN([C@H]4CCC(=O)NC4=O)C5=O)CC3)CC2)cc1)c1ccccc1 [Compound 101, (S,Z)-3-(5-(4-(4-(4-(1-(4-hydroxyphenyl)-2-phenylbut-1-en-1-yl)phenyl)piperazine-1-carbonyl)piperazin-1-yl)-1-oxoisoindolin-2-yl)piperidine-2,6-dione]	> 8.00	7.30 to 8.00	< 10	> 90		
CC/C(=C(/c1ccc(O)cc1)c1ccc(N2CCN(C(=O)N3CCN(c4ccc5c(c4)CN([C@@H]4CCC(=O)NC4=O)C5=O)CC3)CC2)cc1)c1ccccc1 [Compound 102, (R,Z)-3-(5-(4-(4-(4-(1-(4-hydroxyphenyl)-2-phenylbut-1-en-1-yl)phenyl)piperazine-1-carbonyl)piperazin-1-yl)-1-oxoisoindolin-2-yl)piperidine-2,6-dione]	> 8.00	7.30 to 8.00	< 10	> 90		
CC/C(=C(\c1ccc(B(O)O)cc1)c1ccc(N2CCN(C(=O)N3CCN(c4ccc5c(c4)CN(C4CCC(=O)NC4=O)C5=O)CC3)CC2)cc1)c1ccccc1 (centres unmarked) [Compound 103, (Z)-(4-(1-(4-(4-(4-(2-(2,6-dioxopiperidin-3-yl)-1-oxoisoindolin-5-yl)piperazine-1-carbonyl)piperazin-1-yl)phenyl)-2-phenylbut-1-en-1-yl)phenyl)boronic acid]	> 8.00	> 8.00	< 10	> 90		
CC/C(=C(\c1ccc(B(O)O)cc1)c1ccc(N2CCN(C(=O)N3CCN(c4ccc5c(c4)CN([C@H]4CCC(=O)NC4=O)C5=O)CC3)CC2)cc1)c1ccccc1 [Compound 104, (S,Z)-(4-(1-(4-(4-(4-(2-(2,6-dioxopiperidin-3-yl)-1-oxoisoindolin-5-yl)piperazine-1-carbonyl)piperazin-1-yl)phenyl)-2-phenylbut-1-en-1-yl)phenyl)boronic acid]	> 8.00	> 8.00	< 10	> 90		
CC/C(=C(\c1ccc(B(O)O)cc1)c1ccc(N2CCN(C(=O)N3CCN(c4ccc5c(c4)CN([C@@H]4CCC(=O)NC4=O)C5=O)CC3)CC2)cc1)c1ccccc1 [Compound 105]	> 8.00	> 8.00	< 10	> 90		
CC/C(=C(/c1ccc(B(O)O)cc1)c1ccc(N2CCN(C(=O)N3CCN(c4ccc5c(c4)CN(C4CCC(=O)NC4=O)C5=O)CC3)CC2)cc1)c1ccccc1 (centres unmarked) [Compound 106]	> 8.00	> 8.00	< 10	> 90		

The next lines start with results.

pIC50 [1]	pIC50 ([2]; Homo sapiens, MCF7)	DC50 [3] [nM]	Dmax [3, 4] [%]	SMILES	pIC50 [2]	Dmax ([3]; Maximal ER degradation)
> 8.00	> 8.00	< 10	> 90	CC/C(=C(/c1ccc(B(O)O)cc1)c1ccc(N2CCN(C(=O)N3CCN(c4ccc5c(c4)CN([C@H]4CCC(=O)NC4=O)C5=O)CC3)CC2)cc1)c1ccccc1 [Compound 107, (S,E)-(4-(1-(4-(4-(4-(2-(2,6-dioxopiperidin-3-yl)-1-oxoisoindolin-5-yl)piperazine-1-carbonyl)piperazin-1-yl)phenyl)-2-phenylbut-1-en-1-yl)phenyl)boronic acid]		
> 8.00	> 8.00	< 10	> 90	CC/C(=C(/c1ccc(B(O)O)cc1)c1ccc(N2CCN(C(=O)N3CCN(c4ccc5c(c4)CN([C@@H]4CCC(=O)NC4=O)C5=O)CC3)CC2)cc1)c1ccccc1 [Compound 108, (R,E)-(4-(1-(4-(4-(4-(2-(2,6-dioxopiperidin-3-yl)-1-oxoisoindolin-5-yl)piperazine-1-carbonyl)piperazin-1-yl)phenyl)-2-phenylbut-1-en-1-yl)phenyl)boronic acid]		
> 8.00	7.30 to 8.00	10 to 50	> 90	CC/C(=C(\c1ccc(O)cc1)c1ccc(N2CCN(C(=O)N3CCC(N4CCN(c5ccc6c(c5)CN(C5CCC(=O)NC5=O)C6=O)CC4)CC3)CC2)cc1)c1ccccc1 (centres unmarked) [Compound 109, (E)-3-(5-(4-(1-(4-(4-(1-(4-hydroxyphenyl)-2-phenylbut-1-en-1-yl)phenyl)piperazine-1-carbonyl)piperidin-4-yl)piperazin-1-yl)-1-oxoisoindolin-2-yl)piperidine-2,6-dione]		
> 8.00	7.30 to 8.00	10 to 50	> 90	CC/C(=C(\c1ccc(B(O)O)cc1)c1ccc(N2CCN(C(=O)N3CCC(N4CCN(c5ccc6c(c5)CN(C5CCC(=O)NC5=O)C6=O)CC4)CC3)CC2)cc1)c1ccccc1 (centres unmarked) [Compound 110, (Z)-(4-(1-(4-(4-(4-(4-(2-(2,6-dioxopiperidin-3-yl)-1-oxoisoindolin-5-yl)piperazin-1-yl)piperidine-1-carbonyl)piperazin-1-yl)phenyl)-2-phenylbut-1-en-1-yl)phenyl)boronic acid]		
> 8.00	7.30 to 8.00	10 to 50	> 90	CC/C(=C(/c1ccc(O)cc1)c1ccc(N2CCN(C(=O)N3CCC(N4CCN(c5ccc6c(c5)CN(C5CCC(=O)NC5=O)C6=O)CC4)CC3)CC2)cc1)c1ccccc1 (centres unmarked) [Compound 111, (Z)-3-(5-(4-(1-(4-(4-(1-(4-hydroxyphenyl)-2-phenylbut-1-en-1-yl)phenyl)piperazine-1-carbonyl)piperidin-4-yl)piperazin-1-yl)-1-oxoisoindolin-2-yl)piperidine-2,6-dione]		
> 8.00	7.30 to 8.00	10 to 50	> 90	CC/C(=C(/c1ccc(B(O)O)cc1)c1ccc(N2CCN(C(=O)N3CCC(N4CCN(c5ccc6c(c5)CN(C5CCC(=O)NC5=O)C6=O)CC4)CC3)CC2)cc1)c1ccccc1 (centres unmarked) [Compound 112, (E)-(4-(1-(4-(4-(4-(4-(2-(2,6-dioxopiperidin-3-yl)-1-oxoisoindolin-5-yl)piperazin-1-yl)piperidine-1-carbonyl)piperazin-1-yl)phenyl)-2-phenylbut-1-en-1-yl)phenyl)boronic acid]		
> 8.00	> 8.00	< 10	> 90	CC/C(=C(\c1ccc(O)cc1)c1ccc(N2CCN(C(=O)N3CCC(CN4CCN(c5ccc6c(c5)CN(C5CCC(=O)NC5=O)C6=O)CC4)CC3)CC2)cc1)c1ccccc1 (centres unmarked) [Compound 113, (E)-3-(5-(4-((1-(4-(4-(1-(4-hydroxyphenyl)-2-phenylbut-1-en-1-yl)phenyl)piperazine-1-carbonyl)piperidin-4-yl)methyl)piperazin-1-yl)-1-oxoisoindolin-2-yl)piperidine-2,6-dione]		
